Experimental data reported in US20240336972A1, “METHODS FOR SELECTING MELANOMA PATIENTS FOR THERAPY AND METHODS OF REDUCING OR PREVENTING MELANOMA METASTASIS” (Oregon Health & Science University, priority 2021, published 2024).
“Also recorded” adds a separate entry of the source.

Experiments:
A375 melanoma cells = test: RNA-seq of A375 melanoma cells before and after treatment with fluvastatin; format: cell-based, human
Protocol: Characterization of the transcriptome in human melanoma cells exposed to fluvastatin The effect of statins on the melanoma transcriptome was characterized using a well-established melanoma cell line. Human melanoma cell line A375 (a generous gift of Dr John Letterio, Case Western Reserve University, Cleveland, OH) were maintained in standard growth media consisting of RPMI 1640 (Thermo Fisher Scientific, Waltham, MA) b 10% fetal bovine serum p 2 mM glutamine and grown in a 5% carbon dioxide-humidified atmosphere at 37° C. Cells were tested biannually and shown to be negative for mycoplasma contamination using the Mycoplasma Detection kit (MycoAlert, Lonza, Basel, Switzerland). For gene expression studies, A375 cells were seeded at 2.5E6 per […] and allowed to adhere overnight. Test samples (in triplicate) were treated with fluvastatin (purchased from Millipore Sigma, St. […] Untreated control cells grown side by side were used as the reference control for differential expression analysis. RNA was quantified using the Qubit Broad Range RNA kit (catalog #Q10210; Thermo Fisher Scientific) and diluted to 50 ng/ml for RNA-seq.
Sequencing reads generated from the Illumina HiSeq platform (Illumina, San Diego, CA) were assessed for quality and trimmed for adapter sequences using TrimGalore!, version 0.4.2 (Babraham Bioinformatics, Cambridge, United Kingdom), a wrapper script for FastQC and cutadapt. Reads that passed quality control were subsequently aligned to the human reference genome (GRCh38) using STAR aligner, version 2.5.1. Sequence alignment was guided using the GENCODE annotation for hg38. The aligned reads were analyzed for differential expression using Cufflinks, version 2.2.1, an RNA-seq analysis package that reports the fragments per kilobase of exon per million mapped for each gene. A differential analysis report was generated using the cuffdiff command performed in a pairwise manner for each group. Differential genes were identified using a significance cutoff of q<0.05. The differential expression profiles were then used as input in iPathwayGuide (Advaita Bioinformatics, Ann Arbor, MI) for pathway analysis.

A375 cells = conditions: cited from earlier work
melanoma metastasis = conditions: mouse, in vivo; cited from earlier work
[1] = system: melanocytic atypia and melanoma initiation markers; conditions: in vivo; cited from earlier work
[2] = fluvastatin 3 µM, 24 hours, vs untreated control
[3] = fluvastatin 3 µM, 24 hours, vs untreated control, SkylineDx profile gene

SMILES: CC(C)n1c(/C=C/C(O)CC(O)CC(=O)O)c(-c2ccc(F)cc2)c2ccccc21 (centres unmarked) [Fluvastatin]
- expression of genes included in melanoma prognostic tests (DecisionDx-Melanoma, Merlin Assay) (A375 melanoma cells): significantly altered
- expression of genes used in a diagnostic test that distinguishes melanoma from nevi (myPath Melanoma) (A375 melanoma cells): did not alter; also recorded: did not affect
- effect on the metastatic gene expression profile of melanoma (A375 melanoma cells; 3 μM concentration for 24 hours): effectively reverses
- SLC16A1 fold change (A375 melanoma cells; after fluvastatin exposure, q=0.062, not statistically significant): 0.797
- BUB1 Log2 Fold Change (A375 melanoma cells; [2]): −0.7319
- CCND3 Log2 Fold Change (A375 melanoma cells; [2]): −0.7194
- CDKN1A Log2 Fold Change (A375 melanoma cells; [2]): 1.3053
- CDKN1C Log2 Fold Change (A375 melanoma cells; [2]): 3.2643
- CUL1 Log2 Fold Change (A375 melanoma cells; [2]): −0.3847
- FGF2 Log2 Fold Change (A375 melanoma cells; [2]): −0.5791
- KIFC1 Log2 Fold Change (A375 melanoma cells; [2]): −0.4213
- MAGEA1 Log2 Fold Change (A375 melanoma cells; [2]): −0.4357
- MAGEA3 Log2 Fold Change (A375 melanoma cells; [2]): −0.4574
- MAGEA4 Log2 Fold Change (A375 melanoma cells; [2]): −0.2919
- MAGEA6 Log2 Fold Change (A375 melanoma cells; [2]): −0.4529
- MAGED1 Log2 Fold Change (A375 melanoma cells; [2]): 0.7222
- S1PR5 Log2 Fold Change (A375 melanoma cells; [2]): −1.3212
- SOX4 Log2 Fold Change (A375 melanoma cells; [2]): −0.4139
- TGFBRAP1 Log2 Fold Change (A375 melanoma cells; [2]): −0.3389
- AQP3 Log2 Fold Change (A375 melanoma cells; fluvastatin 3 µM, 24 hours, vs untreated control, Castle Biosciences profile gene): 3.2162
- K14 Log2 Fold Change (A375 melanoma cells; fluvastatin 3 µM, 24 hours, vs untreated control, Castle Biosciences profile gene (keratin 14)): 2.8530
- CXCL8 Log2 Fold Change (A375 melanoma cells; [3]): 0.8218
- ITGB3 Log2 Fold Change (A375 melanoma cells; [3]): 0.5304
- PLAT Log2 Fold Change (A375 melanoma cells; [3]): 1.7389
- differentially expressed genes identified (A375 melanoma cells; significance cutoff q<0.05): 2,615

SMILES: CC(C)c1c(C(=O)Nc2ccccc2)c(-c2ccccc2)c(-c2ccc(F)cc2)n1CC[C@@H](O)C[C@@H](O)CC(=O)O [atorvastatin, Atorvastatin]
- migration and invasion (A375 cells; Matrigel transwell assay): decreasing
- isoprenylation of RhoC (A375 cells): decreases
- metastasis (melanoma metastasis): decreasing

SMILES: CC[C@H](C)C(=O)O[C@H]1C[C@@H](C)C=C2C=C[C@H](C)[C@H](CC[C@@H]3C[C@@H](O)CC(=O)O3)[C@H]21 [lovastatin, Lovastatin]
- melanocytic atypia or other melanoma initiation markers [1]: did not identify any significant decreases
